Assay: xn = mol fraction of the nth substance listed
Settings: for surface tension liquid-gas: Ring tensiometer; for mass density: 101 kPa, Liquid

CC#N [acetonitrile] + CCCO
Settings | mass density [kg/m3] | surface tension liquid-gas [mN/m]
278.15 K, x1 = 0.1255 | 813.41 | 25.2
278.15 K, x1 = 0.2452 | 810.66 | 25.4
278.15 K, x1 = 0.3466 | 808.33 | 25.8
278.15 K, x1 = 0.4995 | 804.81 | 26.5
278.15 K, x1 = 0.6449 | 801.47 | 27.4
278.15 K, x1 = 0.7492 | 799.07 | 28.1
278.15 K, x1 = 0.8645 | 796.42 | 29.1
278.15 K, x1 = 0.9101 | 795.37 | 29.5
278.15 K, x1 = 1 | 793.3 | 30.5
283.15 K, x1 = 0.1255 | 809.44 | 24.8
283.15 K, x1 = 0.2452 | 806.61 | 25
283.15 K, x1 = 0.3466 | 804.22 | 25.4
283.15 K, x1 = 0.4995 | 800.61 | 26.1
283.15 K, x1 = 0.6449 | 797.18 | 27
283.15 K, x1 = 0.7492 | 794.72 | 27.7
283.15 K, x1 = 0.8645 | 792 | 28.7
283.15 K, x1 = 0.9101 | 790.92 | 29.1
283.15 K, x1 = 1 | 788.8 | 30.1
288.15 K, x1 = 0.1255 | 805.55 | 24.4
288.15 K, x1 = 0.2452 | 802.64 | 24.7
288.15 K, x1 = 0.3466 | 800.18 | 25
288.15 K, x1 = 0.4995 | 796.46 | 25.7
288.15 K, x1 = 0.6449 | 792.93 | 26.6
288.15 K, x1 = 0.7492 | 790.39 | 27.3
288.15 K, x1 = 0.8645 | 787.59 | 28.3
288.15 K, x1 = 0.9101 | 786.48 | 28.7
288.15 K, x1 = 1 | 784.3 | 29.7
293.15 K, x1 = 0.1255 | 799.41 | 24
293.15 K, x1 = 0.2452 | 796.56 | 24.3
293.15 K, x1 = 0.3466 | 794.15 | 24.6
293.15 K, x1 = 0.4995 | 790.51 | 25.3
293.15 K, x1 = 0.6449 | 787.05 | 26.2
293.15 K, x1 = 0.7492 | 784.57 | 26.9
293.15 K, x1 = 0.8645 | 781.82 | 27.9
293.15 K, x1 = 0.9101 | 780.74 | 28.3
293.15 K, x1 = 1 | 778.3 | 29.3
298.15 K, x1 = 0.1255 | 796.74 | 23.6
298.15 K, x1 = 0.2452 | 794.01 | 23.9
298.15 K, x1 = 0.3466 | 791.7 | 24.2
298.15 K, x1 = 0.4995 | 788.21 | 24.9
298.15 K, x1 = 0.6449 | 784.9 | 25.8
298.15 K, x1 = 0.7492 | 782.52 | 26.6
298.15 K, x1 = 0.8645 | 779.89 | 27.5
298.15 K, x1 = 0.9101 | 778.85 | 27.9
298.15 K, x1 = 1 | 776.75 | 28.9
303.15 K, x1 = 0.1255 | 792.49 | 23.2
303.15 K, x1 = 0.2452 | 789.62 | 23.5
303.15 K, x1 = 0.3466 | 787.18 | 23.8
303.15 K, x1 = 0.4995 | 783.51 | 24.5
303.15 K, x1 = 0.6449 | 780.02 | 25.4
303.15 K, x1 = 0.7492 | 777.52 | 26.2
303.15 K, x1 = 0.8645 | 774.75 | 27.1
303.15 K, x1 = 0.9101 | 773.66 | 27.5
303.15 K, x1 = 1 | 771.5 | 28.5
308.15 K, x1 = 0.1255 | 789.47 | 22.8
308.15 K, x1 = 0.2452 | 786.3 | 23.1
308.15 K, x1 = 0.3466 | 783.62 | 23.4
308.15 K, x1 = 0.4995 | 779.56 | 24.2
308.15 K, x1 = 0.6449 | 775.71 | 25
308.15 K, x1 = 0.7492 | 772.95 | 25.8
308.15 K, x1 = 0.8645 | 769.89 | 26.7
308.15 K, x1 = 0.9101 | 768.68 | 27.1
308.15 K, x1 = 1 | 766.3 | 28.1
313.15 K, x1 = 0.1255 | 783.74 | 22.4
313.15 K, x1 = 0.2452 | 780.62 | 22.7
313.15 K, x1 = 0.3466 | 777.99 | 23
313.15 K, x1 = 0.4995 | 774.01 | 23.8
313.15 K, x1 = 0.6449 | 770.23 | 24.6
313.15 K, x1 = 0.7492 | 767.52 | 25.4
313.15 K, x1 = 0.8645 | 764.52 | 26.3
313.15 K, x1 = 0.9101 | 763.34 | 26.8
313.15 K, x1 = 1 | 761 | 27.7

Reference: the NIST ThermoML archive (doi:10.1007/s10765-009-0581-7)
